In brackets after ≈: the same amount, converted by molar mass.
Legend:
HeLa LTR β-Gal cells = test: Cellular toxicity in parallel plates, tetrazolium dye (XTT) cell viability end point
Description: The fold increase in activity was calculated as a relative decrease in EC50 to the Week 0 material. Chicago Sky Blue was included as a positive control for inhibition of viral attachment.
HIV Attachment Assay: A crude serum sample dialyzed against Buffer A, the dialyzed 66% ammonium sulfate pellet, and DEAE-Blue fractions 12, 14, 60, 62, 64, and 66 were analyzed for anti-HIV activity in a virus attachment assay. These fractions were diluted in Buffer A to a 2× high test concentration and analyzed for anti-HIV activity in a cell attachment assay that utilizes a galactosidase reporter to measure virus attachment and infection. Sister plates were used to evaluate fraction toxicity using an XTT based end point. Briefly, on the day prior to compound and virus addition, 100 μL of HeLa LTR β-Gal cells at a density of 1×10^4/well in 10% complete DMEM were plated in 96-well flat bottomed plates and incubated overnight at 37° C./5% CO2. Duplicate plates were seeded in order to evaluate efficacy and toxicity in parallel. Following the overnight incubation, selected protein fractions diluted to a high test concentration in culture media and were further diluted in ½ log increments such that a total of 6 concentrations were evaluated.
Medium was removed and 50 μL of the prepared compound dilutions were added in triplicate to both plates. A volume of 50 μL of 10% complete DMEM was added to the virus control wells and 100 μL was added to the cell control wells. Plates were incubated for approximately 15-30 minutes while virus (HIV-1 IIIB) was being prepared. The appropriate titer of virus used in the assay was determined and prepared and 50 μL was then added to the wells containing compound and the virus control wells on the efficacy plate. On the toxicity plate, 50 μL of 10% complete DMEM was added to these same wells. Plates were incubated for 2 hours at 37° C./5% CO2. […] Following the washing steps, 200 μL of 10% complete DMEM was added to all wells and the plates were incubated at 37° C./5% CO2 for 48 hours. The toxicity plates were evaluated by the addition of the tetrazolium dye XTT which is converted by mitochondrial enzymes in viable cells to a soluble formazan product. Efficacy plates were evaluated by the chemilluminescence detection assay.

HIV-1 IIIB = test: microbe, parasite or virus in culture; assay type: cell-based
Description: Antibody depletion experiments were conducted on the product prepared as described in Example 3 by the panning technique as follows. […] The plate was incubated for 3 hours at room temperature. Following the incubation, the antibodies and PBS were removed and 200 μL of blocking solution (0.05% Tween 20, 10 mg/mL BSA in PBS) was added and the plate was incubated overnight at 4° C. Following the overnight incubation, the wells were washed 5 times with wash buffer (PBS plus 0.05% Tween-20). One hundred fifty microliters (150 μL) of the serum product (designated VR-30) was added to each of the wells and the plate was incubated for 2 hours at 37° C.
The serum was then removed and used in the HIV-β-galactosidase attachment assay. The depleted material was evaluated for activity in parallel with undepleted VR-30 (VR-30 Std Treatment) and mock-depleted VR-30 (VR-30 PBS).
The anti-HIV-activity of the initial serum sample is determined by: (1) measuring the protein concentration of the serum fraction using Bradford or Lowery based method for determining protein concentration; (2) determining the activity of the fraction using established in vitro anti-viral assay (attachment assay); (3) assigning a unit of activity to the fraction based on the amount of protein needed to achieve a 50% inhibition of viral replication/infectivity (IC50). This unit can be used as a baseline to track the fold purification obtained through the fractionation process.
Efficacy plates were evaluated by the chemilluminescence detection assay.
All EC50's in FIG. 2 and Table IV are the concentration of total protein (μg/ml) in a given fraction that inhibited viral replication in the attachment assay to 50% of the no compound control.

[1] = system: monocytes and macrophages; details: antiviral models and cytokine induction from monocytes and macrophages; cited from earlier work

Row | Compound | TC50 (HeLa LTR β-Gal cells; Table I, control compounds) | TC50 (HeLa LTR β-Gal cells; Table II, 50% cellular toxicity, XTT) | TC50 (HeLa LTR β-Gal cells; Table V, XTT toxicity plates) | IC50 (HIV-1 IIIB; Human immunodeficiency virus 1, IIIB, HeLa) | EC50 (HIV-1 IIIB; Human immunodeficiency virus 1, IIIB, HeLa, Table II, total protein for 50% inhibition of HIV attachment and replication, triplicate) | EC50 (HIV-1 IIIB; Human immunodeficiency virus 1, IIIB, HeLa, Table V, total protein inhibiting viral replication to 50% of no compound control, HIV-1 IIIB) | potency relative to imiquimod [1] | IC50 (HIV-1 IIIB; Table I, control compounds)
1 | COc1cc(-c2ccc(/N=N/c3ccc4c(S(=O)(=O)O)cc(S(=O)(=O)O)c(N)c4c3O)c(OC)c2)ccc1/N=N/c1ccc2c(S(=O)(=O)O)cc(S(=O)(=O)O)c(N)c2c1O [Chicago Sky Blue] | >10 µg/mL | >10000 µg/mL | >10 µg/mL | 1.3 µg/mL (≈ 1.44 µM) | 100 µg/mL (≈ 111 µM) | 0.6 µg/mL (≈ 0.663 µM) | – | –
2 | CCOCc1nc2c(N)nc3ccccc3c2n1CC(C)(C)O [Fraction S-28463, 4-Amino-otec,-dimethyl-2-ethoxymethyl-lH-imidazo[4,5-c]quinoline-1-ethanol] | – | – | – | – | – | – | about 100 fold | –
3 | Dextran Sulfate | >25 µg/mL | – | – | – | – | – | – | 0.65 µg/mL

From patent publication US20060110405A1, “Plasma or serum fraction for treatment and prevention of viral infections and related conditions” (priority 2004, published 2006)
